Structures are written as SMILES.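 In this assay, cells in 96-well plates receive the compound at five concentrations for 48 hours. Endpoints are linearly interpolated between the surrounding concentrations. GI50: concentration for 50% inhibition of growth. Definition used: TGI = concentration required for complete inhibition of growth.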

The first test has as its system SK-MEL-28 melanoma. The test can be described thus: growth of human tumour cells (NCI), 48 h.
As for `CC(C)C(=O)NS(=O)(=O)c1ccccc1`, the TGI is > 100 µM.

In turn, `COC1(OC)CC2C(=O)N(Cc3ccccc3)C1C=C2S(=O)(=O)c1ccccc1` (stereo not drawn) registered a TGI of 31.9 µM.

Turning to `CC(=O)[O][Ga]([Br])[O]C(C)=O`, the GI50 was > 100 µM and the TGI was > 100 µM.

Regarding `COc1cc2c(OC)cc1CSCc1sc(C)c(c1Br)CSC2`, the TGI is > 100 µM.

For `CC(C)N(C(=O)C12C3C4C1(I)C1C2C3(I)C41C(=O)N(C(C)C)C(C)C)C(C)C` (stereo not drawn), the TGI is > 100 µM.

Turning to `Cc1cccc(C)c1NC(=O)C(=O)C(C(=O)c1ccccc1-c1ccccc1)C1OC(=O)c2ccccc21` (stereo not drawn), the TGI was 61.4 µM.

On to `CC1COC(C)(C)P(=O)(c2ccccc2)C1` (stereo not drawn), for which the TGI is > 100 µM.

As for `Cc1ccc(S(=O)(=O)c2ccc(N)cc2)cc1`, the TGI was > 100 µM.

As for `CCOP(=O)(OCC)OC1C=CC2CCC1C2` (stereo not drawn), the TGI was > 100 µM.

Regarding `COC(=O)[C@H]1C=C[C@@H](C)n2c(=O)c3cc4ccccc4cc3c(=O)n21`, the TGI was > 100 µM.

In the case of `COc1cc(C=O)c(-c2cc(OC)c(OC)cc2C=O)cc1OC`, the TGI is > 100 µM.

For `N#CC(C(=O)C(=O)Nc1ccc(Cl)cc1)c1ccccc1` (stereo not drawn), the TGI was > 100 µM.

Regarding `COc1cc(C(=O)N2CCN(c3ncccn3)CC2)c(N)cc1OCc1ccccc1`, the GI50 is > 100 µM and the TGI was > 100 µM.

On to `COc1c[c]([Hg][O]C(C)=O)c(OC)c(NC(=O)CC(C)=O)[c]1[Hg][O]C(C)=O`, for which the GI50 is 1.83 µM and the TGI was found to be 3.61 µM.

For `O=C(/C=C/c1ccccc1Cl)NC1C=Nc2ccc([N+](=O)[O-])cc2NC1` (stereo not drawn), the TGI was > 100 µM.

Turning to `CCCO/S(=N\S(=O)(=O)c1ccccc1)c1ccccc1[N+](=O)[O-]` (stereo not drawn), the TGI is > 100 µM.

For the compound `Cc1ccc(C)c(N=C2NC(=O)C(CC(=O)Nc3ccc(Cl)cc3Cl)S2)c1` (stereo not drawn), the TGI was > 100 µM.

For `C/C(CC(=O)Nc1cccc(Cl)c1C)=N\NC(=O)c1ccncc1`, the TGI was > 100 µM.

Regarding `Cc1cc(NS(=O)(=O)c2ccc(Nc3c4ccccc4nc4c(C(=O)N5CCN(CCO)CC5)ccc(Cl)c34)cc2)no1`, the TGI is > 100 µM.

For the compound `COc1ccc(-c2ccc(-c3ccc(C(=N)N)s3)s2)cc1`, the GI50 is 0.187 µM and the TGI was 0.348 µM.

`Cc1nc([N+](=O)[O-])cn1CC(=N)N`: the TGI was > 100 µM.

On to `COC(=O)/C=C/c1c(CC=C(C)C)ncn1C`, for which the TGI is > 100 µM.

With `CC(C)C(=O)Nc1nc2c(ncn2C2OC(CO)C(O)C2O)c(=O)[nH]1` (stereo not drawn), the TGI is > 100 µM.

On to `O=S(=O)(c1ccccc1)C1CN2OC1(S(=O)(=O)c1ccccc1)CC2c1ccc(Br)cc1` (stereo not drawn), for which the TGI was > 100 µM.

For the compound `O=Cc1ccc2c(c1-c1c(C=O)ccc3c1OCO3)OCO2`, the TGI was > 100 µM.

On to `Cc1cc(C)nc(NS(=O)(=O)c2ccc(NC(=O)c3cccc4c(Nc5ccc(S(N)(=O)=O)cc5)c5ccccc5nc34)cc2)n1`, for which the TGI is > 29.3 µM.

For `Cc1cc(S(=O)(=O)O)c(NC(=O)C(=O)Cc2cc(=O)oc3cc(O)ccc23)cc1Cl`, the TGI was > 100 µM.

For another test, the system named is SK-MEL-5 melanoma. Kind of test: growth of human tumour cells (NCI), 48 h.
The compound `COC1(OC)CC2C(=O)N(Cc3ccccc3)C1C=C2S(=O)(=O)c1ccccc1` (stereo not drawn) had a TGI of 26.7 µM.

Regarding `CC(=O)[O][Ga]([Br])[O]C(C)=O`, the GI50 is > 100 µM and the TGI was > 100 µM.

With `COc1cc2c(OC)cc1CSCc1sc(C)c(c1Br)CSC2`, the TGI is > 100 µM.

With `CC(C)N(C(=O)C12C3C4C1(I)C1C2C3(I)C41C(=O)N(C(C)C)C(C)C)C(C)C` (stereo not drawn), the TGI is > 100 µM.

For `Cc1cccc(C)c1NC(=O)C(=O)C(C(=O)c1ccccc1-c1ccccc1)C1OC(=O)c2ccccc21` (stereo not drawn), the TGI amounted to 33.7 µM.

Take `CC1COC(C)(C)P(=O)(c2ccccc2)C1` (stereo not drawn): the TGI was > 100 µM.

For `Cc1ccc(S(=O)(=O)c2ccc(N)cc2)cc1`, the TGI was > 100 µM.

`CCOP(=O)(OCC)OC1C=CC2CCC1C2` (stereo not drawn): the TGI is > 100 µM.

Turning to `COC(=O)[C@H]1C=C[C@@H](C)n2c(=O)c3cc4ccccc4cc3c(=O)n21`, the TGI was > 100 µM.

Regarding `COc1cc(C=O)c(-c2cc(OC)c(OC)cc2C=O)cc1OC`, the TGI is > 100 µM.

Take `N#CC(C(=O)C(=O)Nc1ccc(Cl)cc1)c1ccccc1` (stereo not drawn): the TGI is > 100 µM.

With `COc1cc(C(=O)N2CCN(c3ncccn3)CC2)c(N)cc1OCc1ccccc1`, the GI50 is 44.5 µM and the TGI was > 100 µM.

As to `COc1c[c]([Hg][O]C(C)=O)c(OC)c(NC(=O)CC(C)=O)[c]1[Hg][O]C(C)=O`, the GI50 is 2.75 µM and the TGI worked out at 11.2 µM.

Regarding `COC(=O)/C=C1\CCC(C)O1` (stereo not drawn), the TGI was > 100 µM.

As for `O=C(/C=C/c1ccccc1Cl)NC1C=Nc2ccc([N+](=O)[O-])cc2NC1` (stereo not drawn), the TGI is > 100 µM.

For `CCCO/S(=N\S(=O)(=O)c1ccccc1)c1ccccc1[N+](=O)[O-]` (stereo not drawn), the TGI was > 100 µM.

In the case of `Cc1ccc(C)c(N=C2NC(=O)C(CC(=O)Nc3ccc(Cl)cc3Cl)S2)c1` (stereo not drawn), the TGI is > 100 µM.

Take `C/C(CC(=O)Nc1cccc(Cl)c1C)=N\NC(=O)c1ccncc1`: the TGI was > 100 µM.

With `Cc1cc(NS(=O)(=O)c2ccc(Nc3c4ccccc4nc4c(C(=O)N5CCN(CCO)CC5)ccc(Cl)c34)cc2)no1`, the TGI was > 100 µM.

Regarding `COc1ccc(-c2ccc(-c3ccc(C(=N)N)s3)s2)cc1`, the GI50 is 1.21 µM and the TGI was 2.87 µM.

On to `Cc1nc([N+](=O)[O-])cn1CC(=N)N`, for which the TGI was > 100 µM.

`COC(=O)/C=C/c1c(CC=C(C)C)ncn1C`: the TGI is > 100 µM.

For `CC(C)C(=O)Nc1nc2c(ncn2C2OC(CO)C(O)C2O)c(=O)[nH]1` (stereo not drawn), the TGI is > 100 µM.

Regarding `O=S(=O)(c1ccccc1)C1CN2OC1(S(=O)(=O)c1ccccc1)CC2c1ccc(Br)cc1` (stereo not drawn), the TGI was > 100 µM.

`O=Cc1ccc2c(c1-c1c(C=O)ccc3c1OCO3)OCO2`: the TGI is > 100 µM.

As for `CC(=O)O[C@H]1CCC2[C@@H]3CCC4Nc5[nH]ncc5C[C@]4(C)C3CC[C@@]21C` (stereo partly drawn), the TGI worked out at 74.9 µM.

Take `Cc1cc(C)nc(NS(=O)(=O)c2ccc(NC(=O)c3cccc4c(Nc5ccc(S(N)(=O)=O)cc5)c5ccccc5nc34)cc2)n1`: the TGI was > 95.9 µM.

`Cc1cc(S(=O)(=O)O)c(NC(=O)C(=O)Cc2cc(=O)oc3cc(O)ccc23)cc1Cl`: the TGI is > 100 µM.
